We go through two molecules from ChEMBL document CHEMBL1158178, “Study on the binding interaction between carnitine optical isomer and bovine serum albumin” (Eur J Med Chem, 2008).

Series [1] has as its target T1, Albumin (Bos taurus, UniProt P02769). Nature of the series: Binding affinity to bovine serum albumin by fluorescence spectroscopy in presence of Fe3+. Type of series: ADME. The following applies: cattle, isolated protein.
Series [2] concerns the target T1, Albumin. In words: Binding affinity to bovine serum albumin by fluorescence spectroscopy. The following applies: cattle, isolated protein. Type of series: ADME.

T1 sequence (P02769 whole entry): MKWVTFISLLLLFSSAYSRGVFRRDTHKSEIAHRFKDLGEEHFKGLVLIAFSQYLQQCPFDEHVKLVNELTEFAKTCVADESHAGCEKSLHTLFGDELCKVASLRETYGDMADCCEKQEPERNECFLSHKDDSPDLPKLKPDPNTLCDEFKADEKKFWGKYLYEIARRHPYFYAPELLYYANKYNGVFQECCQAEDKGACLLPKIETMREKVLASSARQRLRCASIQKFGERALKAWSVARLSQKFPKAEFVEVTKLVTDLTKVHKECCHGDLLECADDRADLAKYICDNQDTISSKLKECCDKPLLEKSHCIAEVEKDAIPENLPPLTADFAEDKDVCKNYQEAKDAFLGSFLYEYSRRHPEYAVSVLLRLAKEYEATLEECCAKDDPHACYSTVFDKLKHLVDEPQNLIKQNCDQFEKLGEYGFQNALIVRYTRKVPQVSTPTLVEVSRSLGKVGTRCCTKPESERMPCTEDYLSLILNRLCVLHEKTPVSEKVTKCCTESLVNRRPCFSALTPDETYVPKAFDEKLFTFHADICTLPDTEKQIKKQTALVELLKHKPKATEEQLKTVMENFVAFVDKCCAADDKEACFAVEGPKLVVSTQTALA

Regarding `C[N+](C)(C)C[C@@H](O)CC(=O)[O-]` [D-CARNITINE], the results for the K at Albumin [1] and on Albumin [2] were 3.18 ×10⁴ L/mol and 2.15 ×10⁴ L/mol, respectively.

Take `C[N+](C)(C)C[C@H](O)CC(=O)[O-]` [LEVOCARNITINE]: the K at Albumin [1] amounted to 2.97 ×10⁴ L/mol; on Albumin [2], 2.27 ×10⁴ L/mol.
